Data on 27 compounds can be found in PubChem BioAssay (NCI).

SMILES strings stand for the structures.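 In this assay, cells in 96-well plates receive the compound at five concentrations for 48 hours. Endpoints are linearly interpolated between the surrounding concentrations. GI50: concentration for 50% inhibition of growth. TGI marks complete inhibition of growth.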

The experiment concerns MDA-MB-468 breast. Description: NCI anticancer screen, dose series, 48 h.
Regarding `O=C1CCCc2cc3c(cc21)CC1(C3)Cc2cc3c(cc2C1)C(=O)CCC3`, the GI50 is 2.92 µM and the TGI turned out to be 62.7 µM. On to `Cc1nc2sc(C(=O)Nc3cccc(Cl)c3C)c(N)c2cc1C(O)c1ccccc1` (configuration not stated), for which the GI50 is 0.0388 µM and the TGI worked out at 16.9 µM. Turning to `COc1ccc(/C=C2/C(=O)N(/C=C3\C(=O)Oc4ccccc4C3=O)C(=NC(C)=O)N2C)cc1OC`, the GI50 was more than 100 µM and the TGI is more than 100 µM. As for `O=c1[nH]c(=O)n(C2CC(O)C(CO)O2)cc1F` (configuration not stated), the GI50 is 0.25 µM and the TGI turned out to be 20.6 µM. Regarding `O=C(N/N=C\c1ccc([N+](=O)[O-])cc1)c1ccc2nc(-c3ccc(Br)cc3)[nH]c2c1`, the GI50 was 0.856 µM and the TGI was found to be 2.06 µM. For `Cc1cc(O)cc(-c2nn(C)cc2-c2cc(N3CCOCC3)nc(-c3cccnc3)n2)c1`, the GI50 is 1.31 µM and the TGI stood at 5.63 µM.

For the compound `COc1cc(NC(=O)c2cc3ccccc3cc2O)c(OC)cc1Cl`, the GI50 is 2.51 µM and the TGI was 8.11 µM. In the case of `CCCCCCNC(=O)Oc1ccc(/C(=C(/C)c2ccccc2)c2ccc(OCCN3CCCCCC3)cc2)cc1`, the GI50 was 4.9 µM and the TGI stood at 19.5 µM. Turning to `CC1(C)CC(C(=O)OCCCCCCCCCCC[P+](c2ccccc2)(c2ccccc2)c2ccccc2)C(C)(C)N1O` (configuration not stated), the GI50 was 0.0875 µM and the TGI is 0.637 µM. `CCC1C[N+]2=C(c3cc(OC)c(OC)cc3CC2)c2c1cc1n2CCc2cc(OC)c(OC)cc2-1` (configuration not stated): the GI50 is 0.402 µM and the TGI was 5.49 µM. Regarding `O=C(Cc1ccc(-c2ccc(OCCN3CCOCC3)cc2)cn1)NCc1ccccc1`, the GI50 is 0.0246 µM and the TGI is more than 3.57 µM. Turning to `NC1=C(/C(N)=N/O)C(c2ccccc2)c2ccc3ccccc3c2O1` (configuration not stated), the GI50 is 2.13 µM and the TGI was more than 60 µM.

Take `CCN1C(=O)N[C@H]2[C@@H]3NC(=O)c4ccc(Cl)n4[C@@H]3C[C@]21O`: the GI50 was 0.229 µM and the TGI was 1.08 µM.

As to `Nc1ncc(-c2ccc3ncnc(N4CCc5cc(F)c(F)cc54)c3c2)cn1`, the GI50 is 1.89 µM and the TGI was found to be 7.79 µM. For the compound `CCN1Cc2c(/C=C/c3ccccc3)nc3ccc(OC)cc3c2N(c2cccc(Cl)c2)C1`, the GI50 is 1.9 µM and the TGI stood at 3.67 µM. In the case of `NCCNc1nc2ccc(F)cc2c2c(=O)c3cc(F)ccc3sc12`, the GI50 was 1.79 µM and the TGI was 3.34 µM. Take `COC(=O)C(Br)(C(=O)OC)C(Br)C(Br)C(Br)c1ccccc1` (configuration not stated): the GI50 was 1.65 µM and the TGI was found to be 3.53 µM. `COc1ccc2cn3c4ccc(O)cc4[nH]c(=O)c3c2c1`: the GI50 is 0.195 µM and the TGI came to 0.678 µM.

With `Fc1cccc(-c2nc(-c3c[nH]c4ncccc34)cs2)c1`, the GI50 is more than 100 µM and the TGI is more than 100 µM.

`COc1ncc(-c2ccc3ncnc(Nc4cccc(Cl)c4)c3c2)cc1NS(C)(=O)=O`: the GI50 is 0.211 µM and the TGI came to 0.913 µM. Take `COC(=O)[C@]12CC[C@@H](C)[C@H](C)[C@@H]1C1=CC[C@@H]3[C@@]4(C)C(C=O)=C[C@@](C)(COC(=O)c5ccco5)C4=CC[C@@]3(C)[C@]1(C)CC2`: the GI50 was 0.0542 µM and the TGI is 1.94 µM.

`CCN(CC)CCOc1ccccc1-n1c(C)ccc1-c1ccccc1`: the GI50 was 10 µM and the TGI was determined as 24.4 µM. Regarding `CS(=O)(=O)Nc1cccc(-c2ccc3ncnc(Nc4cncc(Cl)c4)c3c2)c1`, the GI50 is 0.133 µM and the TGI amounted to 0.55 µM. Take `CCN(CC)CCC(CNc1c(C)cnc2cc(Cl)ccc12)c1ccc(Cl)c(Cl)c1` (configuration not stated): the GI50 was 2.06 µM and the TGI was determined as 4.64 µM. Turning to `COc1ccc(C(=O)c2cc(C)c(OC)c(C)c2)c(OC)c1OC(=O)C(Cl)Cl`, the GI50 is 0.398 µM. For `NC1=CC(=O)C(=O)c2ccccc21`, the GI50 is 13.2 µM and the TGI is 28.5 µM.

Turning to `COc1ccc(-n2nc(C(=O)NCC(=O)Nc3nc4cc(OC)ccc4s3)c3ccccc3c2=O)cc1`, the GI50 is 0.846 µM.
